Here are results for eight compounds from PubChem BioAssay (NCI).

What all share (test): DTP human tumour cell line panel, 48 h
Experiment [1] deals with CAKI-1 renal.
Experiment [2] relates to HCT-116 colon.
The subject of experiment [3] is HT29 colon.
Experiment [4] concerns NCI-H226 lung.
For experiment [5], the system named is OVCAR-3 ovarian.
The subject of experiment [6] is OVCAR-5 ovarian.
The test system of experiment [7] is OVCAR-8 ovarian.
The test system of experiment [8] is RPMI-8226 leukemia.
The subject of experiment [9] is SF-539 CNS.
Experiment [10] relates to SW-620 colon.
Experiment [11] deals with UACC-257 melanoma.
In experiment [12] the test system is MOLT-4 leukemia.

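Each compound was tested at five concentrations against cells in 96-well plates for 48 hours. GI50: concentration for 50% inhibition of growth. TGI denotes the concentration required for complete inhibition of growth.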

Regarding `CC(N)Cc1cccc(C(F)(F)F)c1` (stereo not given), the TGI in [1], in [2], in experiment [3], in experiment [4], in experiment [5] and in experiment [6] was > 100 µM each time. The TGI in [7], in experiment [8], in [9], in [10] and in experiment [11] was > 100 µM throughout.

As to `CN(C)CCOc1cc2c(c3ccccc13)-c1ccccc1C2=O`, the TGI in [1] worked out at 6.31 µM; in experiment [2] it was 2.93 µM; in experiment [3], 3.44 µM; in [12], 3.92 µM; in experiment [4], 5.69 µM; in experiment [5], 4.99 µM. Also, the TGI stood at 7.05 µM in experiment [6]; 3.23 µM in experiment [7]; 4.27 µM in experiment [8]; 3.27 µM in experiment [9]; 3.87 µM in [10]; 3.17 µM in experiment [11].

On to `CO/C(=N/N1CC1C(F)(F)F)c1ccncc1` (stereo not given), for which the TGI in experiment [1], in experiment [2], in [3], in [12], in experiment [4] and in [5] was > 100 µM in each case. Besides, the TGI in [6], in [7] and in experiment [8] was > 100 µM throughout.

On to `O=C(CCl)N1CCCCC1C1(c2cc3ccccc3[nH]2)OCCO1` (stereo not given), for which the concentration for total growth inhibition (TGI) in experiment [1] turned out to be 1.86 µM; in experiment [2] it was 10.2 µM; in experiment [3], 17.6 µM; in experiment [12] it was 15.8 µM; in experiment [4], 16.3 µM; in experiment [5], 5.34 µM. Further, the TGI in experiment [6] is 17.2 µM; in [7], 17.6 µM; in experiment [8], 13.7 µM; in experiment [9], 4.51 µM; in [10] it was 58.9 µM; in [11] it was 13.1 µM.

`O=C(O)C(Cc1cccs1)NC(=O)C(F)(F)F` (stereo not given): the total growth inhibition concentration (TGI) in experiment [1], in experiment [2], in experiment [3], in experiment [12], in experiment [4] and in experiment [5] was > 100 µM in each case. Besides, the TGI in experiment [6], in experiment [7], in [8], in [9], in experiment [10] and in [11] was > 100 µM throughout.

`CCCCOC(=O)CN1C(=O)c2ccccc2C1=O`: the TGI in experiment [1], in [2], in experiment [3], in [12], in experiment [4] and in experiment [5] was > 100 µM in each case. Besides, the TGI in experiment [6], in experiment [7], in [9], in [10] and in experiment [11] was > 100 µM throughout.

`C#CCCCC(=C)C[C@H](OCc1ccccc1)[C@H]1OC(=O)[C@@H]1C`: the TGI in experiment [1] was 46.5 µM; in [4], > 100 µM; in experiment [5] it was > 100 µM; in experiment [6], > 100 µM; in [7], > 100 µM; in experiment [8], 83.7 µM. The TGI in [9] was 68.5 µM; in [10], > 100 µM; in experiment [11], > 100 µM.

As to `COC(=O)c1cccc(NC(=O)Nc2ccc3oc(=O)c4ccccc4c3c2)c1`, the GI50 in experiment [3] was > 100 µM; in experiment [12], 36.2 µM; in experiment [5], > 100 µM; in experiment [7], > 100 µM; in experiment [8], 24.5 µM; in experiment [10], > 100 µM. Moreover, the GI50 in experiment [11] was > 100 µM. For the same compound, the TGI in [3], in [12], in [5], in experiment [7], in [8] and in experiment [10] was > 100 µM in each case. For the same compound, the TGI in experiment [11] was > 100 µM.
